Reference: the NIST ThermoML archive (doi:10.1021/je300388b)

Experiment: xn = mol fraction of the nth substance listed
Settings: Liquid

CCCCCCCCCC [decane] + O=C=O
Settings | mass density [kg/m3]
303.04 K, 8020 kPa, x2 = 0.869 | 798.45
303.15 K, 9990 kPa, x2 = 0.4698 | 756.27
303.15 K, 11990 kPa, x2 = 0.4698 | 758.43
303.15 K, 14000 kPa, x2 = 0.4698 | 760.53
303.15 K, 15980 kPa, x2 = 0.4698 | 762.54
303.15 K, 17990 kPa, x2 = 0.4698 | 764.51
303.15 K, 19010 kPa, x2 = 0.2361 | 748.64
303.15 K, 19010 kPa, x2 = 0.4698 | 765.49
303.16 K, 7980 kPa, x2 = 0.2361 | 740.1
303.16 K, 8020 kPa, x2 = 0.4698 | 754.05
303.16 K, 9970 kPa, x2 = 0.2361 | 741.73
303.16 K, 12020 kPa, x2 = 0.2361 | 743.35
303.16 K, 16020 kPa, x2 = 0.2361 | 746.43
303.17 K, 14020 kPa, x2 = 0.2361 | 744.91
303.17 K, 18020 kPa, x2 = 0.2361 | 747.92
303.31 K, 10030 kPa, x2 = 0.869 | 807.43
303.31 K, 14030 kPa, x2 = 0.869 | 824.12
303.31 K, 18050 kPa, x2 = 0.869 | 837.96
303.36 K, 12020 kPa, x2 = 0.869 | 816.02
303.37 K, 16020 kPa, x2 = 0.869 | 831.09
313 K, 7980 kPa, x2 = 0.71 | 763.24
313 K, 9940 kPa, x2 = 0.71 | 767.44
313 K, 13970 kPa, x2 = 0.71 | 775.3
313.01 K, 11690 kPa, x2 = 0.71 | 770.91
313.01 K, 18020 kPa, x2 = 0.71 | 782.43
313.03 K, 16020 kPa, x2 = 0.71 | 778.96
313.06 K, 13970 kPa, x2 = 0.4698 | 750.5
313.07 K, 15990 kPa, x2 = 0.4698 | 752.76
313.09 K, 17990 kPa, x2 = 0.4698 | 754.91
313.09 K, 19000 kPa, x2 = 0.4698 | 755.97
313.1 K, 8010 kPa, x2 = 0.4698 | 743.23
313.11 K, 11990 kPa, x2 = 0.4698 | 748.15
313.12 K, 10010 kPa, x2 = 0.4698 | 745.74
313.13 K, 16010 kPa, x2 = 0.2361 | 738.82
313.13 K, 18010 kPa, x2 = 0.2361 | 740.41
313.14 K, 10010 kPa, x2 = 0.2361 | 733.81
313.14 K, 19020 kPa, x2 = 0.2361 | 741.18
313.15 K, 7990 kPa, x2 = 0.2361 | 732.05
313.15 K, 14010 kPa, x2 = 0.2361 | 737.19
313.16 K, 12000 kPa, x2 = 0.2361 | 735.5
313.23 K, 18020 kPa, x2 = 0.869 | 812.48
313.27 K, 10000 kPa, x2 = 0.869 | 776.26
313.31 K, 14000 kPa, x2 = 0.869 | 796.68
313.33 K, 12000 kPa, x2 = 0.869 | 787.12
313.36 K, 7990 kPa, x2 = 0.869 | 762.46
313.37 K, 16040 kPa, x2 = 0.869 | 804.9
323.02 K, 8000 kPa, x2 = 0.71 | 747.45
323.02 K, 18230 kPa, x2 = 0.71 | 769.63
323.09 K, 14030 kPa, x2 = 0.71 | 761.43
323.11 K, 16040 kPa, x2 = 0.71 | 765.46
323.12 K, 9940 kPa, x2 = 0.71 | 752.26
323.13 K, 18030 kPa, x2 = 0.2361 | 732.88
323.15 K, 8010 kPa, x2 = 0.4698 | 732.04
323.15 K, 9980 kPa, x2 = 0.4698 | 734.86
323.15 K, 11970 kPa, x2 = 0.71 | 756.86
323.15 K, 12030 kPa, x2 = 0.2361 | 727.66
323.15 K, 16020 kPa, x2 = 0.2361 | 731.17
323.15 K, 18000 kPa, x2 = 0.4698 | 745.11
323.15 K, 19000 kPa, x2 = 0.4698 | 746.27
323.15 K, 19020 kPa, x2 = 0.2361 | 733.69
323.16 K, 14030 kPa, x2 = 0.2361 | 729.45
323.17 K, 12020 kPa, x2 = 0.4698 | 737.61
323.17 K, 15980 kPa, x2 = 0.4698 | 742.66
323.18 K, 8030 kPa, x2 = 0.2361 | 723.85
323.18 K, 9970 kPa, x2 = 0.2361 | 725.74
323.19 K, 13990 kPa, x2 = 0.4698 | 740.16
323.29 K, 16020 kPa, x2 = 0.869 | 778.27
323.3 K, 10010 kPa, x2 = 0.869 | 740.74
323.3 K, 18080 kPa, x2 = 0.869 | 787.62
